Measurements published in PMC10408569, “Recruitment of hexahydroquinoline as anticancer scaffold targeting inhibition of wild and mutants EGFR (EGFR^WT, EGFR^T790M, and EGFR^L858R)” (Journal of Enzyme Inhibition and Medicinal Chemistry, 2023).

Experiments:
CCRF-CEM = experiment: NCI-60 anticancer screening (SRB); format: cell-based; conditions: Homo sapiens, leukemia, one dose 10 μM, read-out: Growth Inhibition Percentage (GI %)
HL-60(TB) = experiment: NCI-60 anticancer screening (SRB); format: cell-based; conditions: Homo sapiens, leukemia, one dose 10 μM, read-out: Growth Inhibition Percentage (GI %)
K-562 = experiment: NCI-60 anticancer screening (SRB); format: cell-based; conditions: Homo sapiens, K562; K-562, leukemia; one dose 10 μM; read-out: Growth Inhibition Percentage (GI %)
MOLT-4 = experiment: NCI-60 anticancer screening (SRB); format: cell-based; conditions: Homo sapiens; MOLT-4, leukemia; one dose 10 μM; read-out: Growth Inhibition Percentage (GI %)
EKVX = experiment: NCI-60 anticancer screening (SRB); format: cell-based; conditions: Homo sapiens, NSC lung cancer, one dose 10 μM, read-out: Growth Inhibition Percentage (GI %)
HOP-92 = experiment: NCI-60 anticancer screening (SRB); format: cell-based; conditions: Homo sapiens; HOP-92, NSC lung cancer; one dose 10 μM; read-out: Growth Inhibition Percentage (GI %)
NCI-H226 = experiment: NCI-60 anticancer screening (SRB); format: cell-based; conditions: Homo sapiens; NCI-H226, NSC lung cancer; one dose 10 μM; read-out: Growth Inhibition Percentage (GI %)
NCI-H522 = experiment: NCI-60 anticancer screening (SRB); format: cell-based; conditions: Homo sapiens; NCI-H522, NSC lung cancer; one dose 10 μM; read-out: Growth Inhibition Percentage (GI %)
COLO 205 = experiment: NCI-60 anticancer screening (SRB); format: cell-based; conditions: Homo sapiens; COLO 205, colon cancer; one dose 10 μM; read-out: Growth Inhibition Percentage (GI %)
SF-268 = experiment: NCI-60 anticancer screening (SRB); format: cell-based; conditions: Homo sapiens; SF-268, CNS cancer; one dose 10 μM; read-out: Growth Inhibition Percentage (GI %)
SF-295 = experiment: NCI-60 anticancer screening (SRB); format: cell-based; conditions: Homo sapiens; SF-295, CNS cancer; one dose 10 μM; read-out: Growth Inhibition Percentage (GI %)
SNB-75 = experiment: NCI-60 anticancer screening (SRB); format: cell-based; conditions: Homo sapiens; SNB-75, CNS cancer; one dose 10 μM; read-out: Growth Inhibition Percentage (GI %)
U251 = experiment: NCI-60 anticancer screening (SRB); format: cell-based; conditions: Homo sapiens, U-251; U251, CNS cancer; one dose 10 μM; read-out: Growth Inhibition Percentage (GI %)
LOX IMVI = experiment: NCI-60 anticancer screening (SRB); format: cell-based; conditions: Homo sapiens, melanoma, one dose 10 μM, read-out: Growth Inhibition Percentage (GI %)
MALME-3M = experiment: NCI-60 anticancer screening (SRB); format: cell-based; conditions: Homo sapiens, melanoma, one dose 10 μM, read-out: Growth Inhibition Percentage (GI %)
M14 = experiment: NCI-60 anticancer screening (SRB); format: cell-based; conditions: Homo sapiens; M14, melanoma; one dose 10 μM; read-out: Growth Inhibition Percentage (GI %)
SK-MEL-2 = experiment: NCI-60 anticancer screening (SRB); format: cell-based; conditions: Homo sapiens; SK-MEL-2, melanoma; one dose 10 μM; read-out: Growth Inhibition Percentage (GI %)
SK-MEL-28 = experiment: NCI-60 anticancer screening (SRB); format: cell-based; conditions: Homo sapiens; SK-MEL-28, melanoma; one dose 10 μM; read-out: Growth Inhibition Percentage (GI %)
UACC-62 = experiment: NCI-60 anticancer screening (SRB); format: cell-based; conditions: Homo sapiens; UACC-62, melanoma; one dose 10 μM; read-out: Growth Inhibition Percentage (GI %)
OVCAR-3 = experiment: NCI-60 anticancer screening (SRB); format: cell-based; conditions: Homo sapiens; OVCAR-3, ovarian cancer; one dose 10 μM; read-out: Growth Inhibition Percentage (GI %)
OVCAR-4 = experiment: NCI-60 anticancer screening (SRB); format: cell-based; conditions: Homo sapiens; OVCAR-4, ovarian cancer; one dose 10 μM; read-out: Growth Inhibition Percentage (GI %)
OVCAR-8 = experiment: NCI-60 anticancer screening (SRB); format: cell-based; conditions: Homo sapiens; OVCAR-8, ovarian cancer; one dose 10 μM; read-out: Growth Inhibition Percentage (GI %)
NCI/ADR-RES = experiment: NCI-60 anticancer screening (SRB); format: cell-based; conditions: Homo sapiens, ovarian cancer, one dose 10 μM, read-out: Growth Inhibition Percentage (GI %)
786-0 = experiment: NCI-60 anticancer screening (SRB); format: cell-based; conditions: Homo sapiens; 786-0, renal cancer; one dose 10 μM; read-out: Growth Inhibition Percentage (GI %)
A498 = experiment: NCI-60 anticancer screening (SRB); format: cell-based; conditions: Homo sapiens; A498, renal cancer; one dose 10 μM; read-out: Growth Inhibition Percentage (GI %)
CAKI-1 = experiment: NCI-60 anticancer screening (SRB); format: cell-based; conditions: Homo sapiens; CAKI-1, renal cancer; one dose 10 μM; read-out: Growth Inhibition Percentage (GI %)
TK-10 = experiment: NCI-60 anticancer screening (SRB); format: cell-based; conditions: Homo sapiens; TK-10, renal cancer; one dose 10 μM; read-out: Growth Inhibition Percentage (GI %)
UO-31 = experiment: NCI-60 anticancer screening (SRB); format: cell-based; conditions: Homo sapiens; UO-31, renal cancer; one dose 10 μM; read-out: Growth Inhibition Percentage (GI %)
DU-145 = experiment: NCI-60 anticancer screening (SRB); format: cell-based; conditions: Homo sapiens; DU-145, prostate cancer; one dose 10 μM; read-out: Growth Inhibition Percentage (GI %)
MCF7 = experiment: NCI-60 anticancer screening (SRB); format: cell-based; conditions: Homo sapiens; MCF7, breast cancer; one dose 10 μM; read-out: Growth Inhibition Percentage (GI %)
HS 578T = experiment: NCI-60 anticancer screening (SRB); format: cell-based; conditions: Homo sapiens; HS 578T, breast cancer; one dose 10 μM; read-out: Growth Inhibition Percentage (GI %)
BT-549 = experiment: NCI-60 anticancer screening (SRB); format: cell-based; conditions: Homo sapiens; BT-549, breast cancer; one dose 10 μM; read-out: Growth Inhibition Percentage (GI %)
MDA-MB-468 = experiment: NCI-60 anticancer screening (SRB); format: cell-based; conditions: Homo sapiens; MDA-MB-468, breast cancer; one dose 10 μM; read-out: Growth Inhibition Percentage (GI %)

Row | SMILES | inhibition at 10 µM (CCRF-CEM) | inhibition at 10 µM (HL-60(TB)) | inhibition at 10 µM (K-562) | inhibition at 10 µM (MOLT-4) | inhibition at 10 µM (EKVX) | inhibition at 10 µM (HOP-92) | inhibition at 10 µM (NCI-H226) | inhibition at 10 µM (NCI-H522) | inhibition at 10 µM (COLO 205) | inhibition at 10 µM (SF-268) | inhibition at 10 µM (SF-295) | inhibition at 10 µM (SNB-75) | inhibition at 10 µM (U251) | inhibition at 10 µM (LOX IMVI) | inhibition at 10 µM (MALME-3M) | inhibition at 10 µM (M14) | inhibition at 10 µM (SK-MEL-2) | inhibition at 10 µM (SK-MEL-28) | inhibition at 10 µM (UACC-62) | inhibition at 10 µM (OVCAR-3) | other results
1 | CCOC(=O)C1=C(N)N(c2ccccc2)C2=C(C(=O)CC(C)(C)C2)C1c1cccc(Cl)c1Cl (racemic) [10a, (±)-Ethyl 2-amino-4–(2,3-dichlorophenyl)-7,7-dimethyl-5-oxo-1-phenyl-1,4,5,6,7,8-hexahydroquinoline-3-carboxylate] | 45% | 54% | 40% | 60% | 42% | 101% | 60% | 25% | 19% | 34% | 46% | 43% | 45% | 22% | 19% | 12% | 41% | < 10% | 44% | 13% | inhibition at 10 µM (OVCAR-4): 34%; inhibition at 10 µM (OVCAR-8): 41%; inhibition at 10 µM (NCI/ADR-RES): 49%; inhibition at 10 µM (786-0): 42%; inhibition at 10 µM (A498): < 10%; inhibition at 10 µM (CAKI-1): 53%; inhibition at 10 µM (TK-10): < 10%; inhibition at 10 µM (UO-31): 25%; inhibition at 10 µM (DU-145): 19%; inhibition at 10 µM (MCF7): 40%; inhibition at 10 µM (HS 578T): < 10%; inhibition at 10 µM (BT-549): 31%; inhibition at 10 µM (MDA-MB-468): 52%; melting point: 235 to 237 °C
2 | CCOC(=O)C1=C(N)N(c2ccc(Cl)cc2)C2=C(C(=O)CC(C)(C)C2)C1c1cccc(Cl)c1Cl (racemic) [10b, (±)-Ethyl 2-amino-1–(4-chorophenyl)-4–(2,3-dichlorophenyl)-7,7-dimethyl-5-oxo-1-phenyl-1,4,5,6,7,8-hexahydroquinoline-3-carboxylate] | 64% | 77% | 71% | 70% | 58% | 30% | 42% | 30% | 41% | 22% | 26% | 22% | 22% | < 10% | 20% | 16% | 20% | 16% | 34% | 44% | inhibition at 10 µM (OVCAR-4): 28%; inhibition at 10 µM (OVCAR-8): 25%; inhibition at 10 µM (NCI/ADR-RES): 32%; inhibition at 10 µM (786-0): 22%; inhibition at 10 µM (A498): < 10%; inhibition at 10 µM (CAKI-1): 53%; inhibition at 10 µM (TK-10): < 10%; inhibition at 10 µM (UO-31): 49%; inhibition at 10 µM (DU-145): 18%; inhibition at 10 µM (MCF7): 52%; inhibition at 10 µM (HS 578T): < 10%; inhibition at 10 µM (BT-549): 31%; inhibition at 10 µM (MDA-MB-468): 68%; melting point: 250 to 252 °C
3 | CCOC(=O)C1=C(N)N(c2ccccc2)C2=C(C(=O)CC(C)(C)C2)C1c1ccccn1 (racemic) [12a, (±)-Ethyl 2-amino-7,7-dimethyl-5-oxo-1-phenyl-4-(pyridin-2-yl)-1,4,5,6,7,8-hexahydroquinoline-3-carboxylate] | < 10% | < 10% | < 10% | < 10% | < 10% | < 10% | < 10% | 11% | < 10% | < 10% | < 10% | 19% | < 10% | < 10% | < 10% | < 10% | < 10% | < 10% | < 10% | < 10% | inhibition at 10 µM (OVCAR-4): < 10%; inhibition at 10 µM (OVCAR-8): < 10%; inhibition at 10 µM (NCI/ADR-RES): < 10%; inhibition at 10 µM (786-0): < 10%; inhibition at 10 µM (A498): < 10%; inhibition at 10 µM (CAKI-1): < 10%; inhibition at 10 µM (TK-10): < 10%; inhibition at 10 µM (UO-31): < 10%; inhibition at 10 µM (DU-145): < 10%; inhibition at 10 µM (MCF7): < 10%; inhibition at 10 µM (HS 578T): < 10%; inhibition at 10 µM (BT-549): < 10%; inhibition at 10 µM (MDA-MB-468): < 10%; melting point: 158 to 160 °C
4 | CCOC(=O)C1=C(N)N(c2ccc(C)cc2)C2=C(C(=O)CC(C)(C)C2)C1c1ccccn1 (racemic) [12b, (±)-Ethyl 2-amino-7,7-dimethyl-1–(4-methylphenyl)-5-oxo-1-phenyl-4-(pyrdin-2-yl)-1,4,5,6,7,8-hexahydroquinoline-3-carboxylate] | < 10% | < 10% | < 10% | < 10% | 19% | < 10% | < 10% | < 10% | < 10% | 14% | < 10% | 19% | < 10% | < 10% | < 10% | < 10% | < 10% | < 10% | 26% | < 10% | inhibition at 10 µM (OVCAR-4): < 10%; inhibition at 10 µM (OVCAR-8): < 10%; inhibition at 10 µM (NCI/ADR-RES): < 10%; inhibition at 10 µM (786-0): < 10%; inhibition at 10 µM (A498): < 10%; inhibition at 10 µM (CAKI-1): 16%; inhibition at 10 µM (TK-10): < 10%; inhibition at 10 µM (UO-31): 23%; inhibition at 10 µM (DU-145): < 10%; inhibition at 10 µM (MCF7): 12%; inhibition at 10 µM (HS 578T): < 10%; inhibition at 10 µM (BT-549): 30%; inhibition at 10 µM (MDA-MB-468): 82%; melting point: 196 to 198 °C
